The numbers were not newly measured in patent US20230243813A1, “METHODS FOR SELECTING AND TREATING CANCER WITH FGFR3 INHIBITORS” (GENECENTRIC THERAPEUTICS, INC., priority 2020, published 2023), which cites them from elsewhere.

In this data set the test system is bladder cancer cell lines. To be noted: GDSC1/GDSC2 IC50 data, RNA-seq and Affymetrix U219 expression, FAS-1 to FAS-4 scores.

Where two headings read alike, the source gives them in different places.

As to `COC(=O)c1ccc2c(c1)NC(=O)/C2=C(\Nc1ccc(N(C)C(=O)CN2CCN(C)CC2)cc1)c1ccccc1` [BIBF 1120, nintedanib], the “sensitivity (IC50) of samples identified as altered by the FAS classifiers” value (from here on “sensitivity (IC50) of samples identified”) was “high sensitivity”. In addition, under “listed as BIBF”, the “sensitivity (IC50) of samples identified” value was “showed samples with sensitivity”.
As for `COc1cc2c(Oc3ccc(NC(=O)C4(C(=O)Nc5ccc(F)cc5)CC4)cc3F)ccnc2cc1OCCCN1CCOCC1` [foretinib, Foretinib], the “sensitivity (IC50) of samples identified” value is reported as “showed samples with sensitivity”.
